Among the data in US20250171437A1 (Agios Pharmaceuticals,Inc., priority 2022, published 2025) are AC50 values, retold here.

In the assay the target is T1, human PAH with the R408W mutation (A375 R408W cells) (Homo sapiens, UniProt P00439, R408W).
T1 construct: expressed in transfected cells
T1 sequence (P00439 1-452 R408W): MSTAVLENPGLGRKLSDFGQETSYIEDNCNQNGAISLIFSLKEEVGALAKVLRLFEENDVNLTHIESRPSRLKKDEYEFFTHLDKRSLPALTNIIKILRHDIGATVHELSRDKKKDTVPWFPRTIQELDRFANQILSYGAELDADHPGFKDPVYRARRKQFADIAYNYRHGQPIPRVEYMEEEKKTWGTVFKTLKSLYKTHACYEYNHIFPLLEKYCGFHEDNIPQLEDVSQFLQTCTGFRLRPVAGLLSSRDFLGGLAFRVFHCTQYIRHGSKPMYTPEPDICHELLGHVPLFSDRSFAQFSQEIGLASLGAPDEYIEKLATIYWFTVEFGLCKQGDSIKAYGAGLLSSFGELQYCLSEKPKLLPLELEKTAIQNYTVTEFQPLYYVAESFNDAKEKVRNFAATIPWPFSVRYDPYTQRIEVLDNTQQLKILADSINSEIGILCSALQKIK
The assay can be described thus: Cell Based Phenylalanine Flux Assay. The settings on record: 24 hrs with compound, then 20 μM sepiapterin and 800 μM 13C9,15N-Phenylalanine for 4 hours, 13C-Tyrosine by LC-MS, average where tested multiple times. An outline of the steps:
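Stable R408W PAH A375 cells: 24 h compound pretreatment in duplicate, then 4 h with 800 μM isotope-labelled Phe and 20 μM sepiapterin. Labelled Tyr output by LC-MS; AC50 averaged where repeated.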

The mark [1] stands for this setting: A375 cells expressing R408W PAH.

Consider `O=C(c1ocnc1C(F)(F)F)N1CCc2[nH]cnc2[C@@H]1c1nc2ccc(F)cc2o1` [Example 162, (R)-(4-(6-fluorobenzo[d]oxazol-2-yl)-6,7-dihydro-1H-imidazo[4,5-c]pyridin-5(4H)-yl)(4-(trifluoromethyl)oxazol-5-yl)methanone], for which the AC50 (A375 R408W cells) fell in the range of 1000 to 5000 nM. With `Cn1ccc(-c2nnc(C(=O)N3CCc4[nH]cnc4[C@H]3c3nc4ccc(F)cc4o3)o2)n1` [Example 321, (S)-(4-(6-fluorobenzo[d]oxazol-2-yl)-6,7-dihydro-1H-imidazo[4,5-c]pyridin-5(4H)-yl)(5-(1-methyl-1H-pyrazol-3-yl)-1,3,4-oxadiazol-2-yl)methanone], the AC50 (A375 R408W cells) lay in the range of 500 to 1000 nM. For `O=C(c1cnco1)N1CCc2[nH]cnc2[C@H]1c1nc2ccccc2o1` [Example 547, (S)-(4-(benzo[d]oxazol-2-yl)-6,7-dihydro-1H-imidazo[4,5-c]pyridin-5(4H)-yl)(oxazol-5-yl)methanone], the AC50 (A375 R408W cells) lay in the range of 500 to 1000 nM. Consider `Cn1nc(C(F)F)cc1C(=O)N1CCc2[nH]cnc2[C@H]1c1nc2cccc(F)c2o1` [Example 733, (S)-(3-(difluoromethyl)-1-methyl-1H-pyrazol-5-yl)(4-(7-fluorobenzo[d]oxazol-2-yl)-6,7-dihydro-1H-imidazo[4,5-c]pyridin-5(4H)-yl)methanone], for which the AC50 (A375 R408W cells) was at most 500 nM. With `Cn1cc(-c2nc(C(F)F)c(C(=O)N3CCc4[nH]cnc4[C@H]3c3nc4cc(F)ccc4o3)o2)cn1` [Example 88, (S)-(4-(difluoromethyl)-2-(1-methyl-1H-pyrazol-4-yl)oxazol-5-yl)(4-(5-fluorobenzo[d]oxazol-2-yl)-6,7-dihydro-1H-imidazo[4,5-c]pyridin-5(4H)-yl)methanone], the AC50 (A375 R408W cells) lay within 500 to 1000 nM. As for `Cc1ccc2oc([C@H]3c4nc[nH]c4CCN3C(=O)c3ccnn3C(F)F)nc2c1` [Example 314, (R)-(1-(difluoromethyl)-1H-pyrazol-5-yl)(4-(5-methylbenzo[d]oxazol-2-yl)-6,7-dihydro-1H-imidazo[4,5-c]pyridin-5(4H)-yl)methanone], the AC50 (A375 R408W cells) was in the range of 500 to 1000 nM. For the compound `O=C(CCc1nccs1)N1CCc2[nH]cnc2[C@@H]1c1nc2c(F)cccc2o1` [Example 398, (R)-1-(4-(4-fluorobenzo[d]oxazol-2-yl)-6,7-dihydro-1H-imidazo[4,5-c]pyridin-5(4H)-yl)-3-(thiazol-2-yl)propan-1-one], the AC50 (A375 R408W cells) was at least 5000 nM. Consider `CC(C)(O)c1nc(Br)c(C(=O)N2CCc3[nH]cnc3[C@@H]2c2nc3cccc(F)c3o2)o1` [Example 264, (R)-(4-bromo-2-(2-hydroxypropan-2-yl)oxazol-5-yl)(4-(7-fluorobenzo[d]oxazol-2-yl)-6,7-dihydro-1H-imidazo[4,5-c]pyridin-5(4H)-yl)methanone], for which, for the setting “A375 R408W cells”, the AC50 was 500 to 1000 nM. Turning to `Cn1ncnc1C(=O)N1CCc2[nH]cnc2C1c1nc2c(F)cccc2o1` (stereo not shown), under setting [1], the AC50 lay in the range of 1000 to 5000 nM. Turning to `Cc1ccc2oc([C@@H]3c4nc[nH]c4CCN3C(=O)c3ncnn3C)nc2c1` [Example 745, (S)-(1-methyl-1H-1,2,4-triazol-5-yl)(4-(5-methylbenzo[d]oxazol-2-yl)-6,7-dihydro-1H-imidazo[4,5-c]pyridin-5(4H)-yl)methanone], the AC50 (A375 R408W cells) lay within 500 to 1000 nM. Same read-out and setting: next, `O=C(c1ccnn1C(F)F)N1CCc2[nH]cnc2[C@@H]1c1nc2c(F)cccc2o1` [Example 202, (R)-(1-(difluoromethyl)-1H-pyrazol-5-yl)(4-(4-fluorobenzo[d]oxazol-2-yl)-6,7-dihydro-1H-imidazo[4,5-c]pyridin-5(4H)-yl)methanone]: 1000 to 5000 nM; `O=C(c1ocnc1C(F)(F)F)N1CCc2[nH]cnc2[C@@H]1c1nc2cccc(F)c2o1` [Example 172, (R)-(4-(7-fluorobenzo[d]oxazol-2-yl)-6,7-dihydro-1H-imidazo[4,5-c]pyridin-5(4H)-yl)(4-(trifluoromethyl)oxazol-5-yl)methanone]: at most 500 nM; `Cn1ccc(-c2nnc(C(=O)N3CCc4[nH]cnc4[C@@H]3c3nc4cccc(F)c4o3)o2)n1` [Example 338, (R)-(4-(7-fluorobenzo[d]oxazol-2-yl)-6,7-dihydro-1H-imidazo[4,5-c]pyridin-5(4H)-yl)(5-(1-methyl-1H-pyrazol-3-yl)-1,3,4-oxadiazol-2-yl)methanone]: 500 to 1000 nM. Turning to `Cc1nc(C(=O)N2CCc3[nH]cnc3[C@@H]2c2nc3cccc(C)c3o2)n(C)n1` [Example 908, (R)-(1,3-dimethyl-1H-1,2,4-triazol-5-yl)(4-(7-methylbenzo[d]oxazol-2-yl)-6,7-dihydro-1H-imidazo[4,5-c]pyridin-5(4H)-yl)methanone], the AC50 (A375 R408W cells) lay in the range of 1000 to 5000 nM. Still for that read-out and setting: next, `COc1ccc2c(C(=O)N3CCc4[nH]cnc4[C@H]3c3nc4c(F)cccc4o3)cnn2c1` [Example 539, (S)-(4-(4-fluorobenzo[d]oxazol-2-yl)-6,7-dihydro-1H-imidazo[4,5-c]pyridin-5(4H)-yl)(6-methoxypyrazolo[1,5-a]pyridin-3-yl)methanone]: at most 500 nM; `O=C(c1oc(C2(O)CC2)nc1C(F)F)N1CCc2[nH]cnc2[C@@H]1c1nc2ccc(F)cc2o1` [Example 238, (R)-(4-(difluoromethyl)-2-(1-hydroxycyclopropyl)oxazol-5-yl)(4-(6-fluorobenzo[d]oxazol-2-yl)-6,7-dihydro-1H-imidazo[4,5-c]pyridin-5(4H)-yl)methanone]: 1000 to 5000 nM. The same measure, in the same setting: next, `O=C(c1ocnc1C(F)F)N1CCc2[nH]cnc2[C@@H]1c1nc2c(C(F)(F)F)cccc2o1` [Example 466, (R)-(4-(difluoromethyl)oxazol-5-yl)(4-(4-(trifluoromethyl)benzo[d]oxazol-2-yl)-6,7-dihydro-1H-imidazo[4,5-c]pyridin-5(4H)-yl)methanone]: 500 to 1000 nM. Turning to `O=C(c1ocnc1C1CC1)N1CCc2[nH]cnc2[C@H]1c1nc2cc(F)ccc2o1` [Example 41, (S)-(4-cyclopropyloxazol-5-yl)(4-(5-fluorobenzo[d]oxazol-2-yl)-6,7-dihydro-1H-imidazo[4,5-c]pyridin-5(4H)-yl)methanone], for the setting “A375 R408W cells”, the AC50 was at most 500 nM. Still for that read-out and setting: next, `O=C(c1cnn2cc(N3CCC(O)CC3)ccc12)N1CCc2[nH]cnc2[C@@H]1c1nc2cccc(F)c2o1` [Example 372, (R)-(4-(7-fluorobenzo[d]oxazol-2-yl)-6,7-dihydro-1H-imidazo[4,5-c]pyridin-5(4H)-yl)(6-(4-hydroxypiperidin-1-yl)pyrazolo[1,5-a]pyridin-3-yl)methanone]: 1000 to 5000 nM. Turning to `Cn1nc(C(F)F)nc1C(=O)N1CCc2[nH]cnc2C1c1nc2ccc(F)cc2o1` (stereo not shown), the AC50 under setting [1] lay within 1000 to 5000 nM.

Consider `CN1CCN(c2nc(C(F)F)c(C(=O)N3CCc4[nH]cnc4[C@@H]3c3nc4cccc(F)c4o3)o2)CC1` [Example 618, (R)-(4-(difluoromethyl)-2-(4-methylpiperazin-1-yl)oxazol-5-yl)(4-(7-fluorobenzo[d]oxazol-2-yl)-6,7-dihydro-1H-imidazo[4,5-c]pyridin-5(4H)-yl)methanone], for which the AC50 (A375 R408W cells) is 500 to 1000 nM. `Cc1nc(C(=O)N2CCc3[nH]cnc3[C@@H]2c2nc3c(C)cccc3o2)n(C)n1` [Example 820, (R)-(1,3-dimethyl-1H-1,2,4-triazol-5-yl)(4-(4-methylbenzo[d]oxazol-2-yl)-6,7-dihydro-1H-imidazo[4,5-c]pyridin-5(4H)-yl)methanone]: the AC50 (A375 R408W cells) is at least 5000 nM. For the compound `CC(C)(O)c1noc(C(=O)N2CCc3[nH]cnc3C2c2nc3ccc(F)cc3o2)n1` (stereo not shown), the AC50 under setting [1] was at least 5000 nM.

Consider `O=C(c1nnc(-c2c(F)cccc2F)o1)N1CCc2[nH]cnc2[C@H]1c1nc2cc(F)ccc2o1` [Example 25, (S)-(5-(2,6-difluorophenyl)-1,3,4-oxadiazol-2-yl)(4-(5-fluorobenzo[d]oxazol-2-yl)-6,7-dihydro-1H-imidazo[4,5-c]pyridin-5(4H)-yl)methanone], for which the AC50 (A375 R408W cells) is at most 500 nM. For the compound `Cc1nc(C(C)O)oc1C(=O)N1CCc2[nH]cnc2C1c1nc2cc(F)ccc2o1` (stereo not shown), under setting [1], the AC50 is at least 5000 nM. Regarding `CC(O)c1nc(Cl)c(C(=O)N2CCc3[nH]cnc3[C@H]2c2nc3cc(F)ccc3o2)o1` (single isomer, unassigned) [Example 235], the AC50 (A375 R408W cells) lay within 1000 to 5000 nM. Take `O=C(Cc1cnco1)N1CCc2[nH]cnc2C1c1nc2cc(F)ccc2o1` (stereo not shown): the AC50 under setting [1] was 1000 to 5000 nM. The same measure, in the same setting: the figure for `O=C(c1cn[nH]c1)N1CCc2[nH]cnc2[C@H]1c1nc2cc(F)ccc2o1` (single isomer, unassigned) is at least 5000 nM; for `O=C(CCc1cncs1)N1CCc2[nH]cnc2C1c1nc2c(F)cccc2o1` (stereo not shown) it is at least 5000 nM.

For the compound `O=C(c1oc(-c2ccccn2)nc1C(F)(F)F)N1CCc2[nH]cnc2[C@H]1c1nc2cc(F)ccc2o1` [Example 49, (S)-(4-(5-fluorobenzo[d]oxazol-2-yl)-6,7-dihydro-1H-imidazo[4,5-c]pyridin-5(4H)-yl)(2-(pyridin-2-yl)-4-(trifluoromethyl)oxazol-5-yl)methanone], under “A375 R408W cells”, the AC50 was at most 500 nM. As to `O=C(c1ocnc1C(F)F)N1CCc2[nH]cnc2[C@H]1c1nc2cccc(C(F)(F)F)c2o1` [Example 493, (S)-(4-(difluoromethyl)oxazol-5-yl)(4-(7-(trifluoromethyl)benzo[d]oxazol-2-yl)-6,7-dihydro-1H-imidazo[4,5-c]pyridin-5(4H)-yl)methanone], the AC50 (A375 R408W cells) was at most 500 nM.
